pIC50: −log10 of the molar value.
Target: T1, human recombinant USP30 (Homo sapiens, UniProt Q70CQ3)
T1 construct: purchased Boston Biochem E-582
T1 sequence (Q70CQ3 1-517): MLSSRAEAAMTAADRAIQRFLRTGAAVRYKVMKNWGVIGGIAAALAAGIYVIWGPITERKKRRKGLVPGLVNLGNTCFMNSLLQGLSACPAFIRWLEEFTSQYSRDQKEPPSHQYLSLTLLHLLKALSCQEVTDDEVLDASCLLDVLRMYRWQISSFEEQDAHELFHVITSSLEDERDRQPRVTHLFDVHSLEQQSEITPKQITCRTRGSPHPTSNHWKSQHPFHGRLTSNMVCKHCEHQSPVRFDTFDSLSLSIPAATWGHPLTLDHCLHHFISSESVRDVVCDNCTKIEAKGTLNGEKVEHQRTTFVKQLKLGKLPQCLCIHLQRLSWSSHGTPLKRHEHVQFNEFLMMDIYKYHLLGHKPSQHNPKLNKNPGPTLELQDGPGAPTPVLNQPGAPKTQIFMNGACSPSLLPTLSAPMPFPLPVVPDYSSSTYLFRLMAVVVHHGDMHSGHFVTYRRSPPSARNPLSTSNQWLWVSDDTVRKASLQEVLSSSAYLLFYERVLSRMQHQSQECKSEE
Test: Ubiquitin-Rhodamine 110 Assay for USP30 Activity (USP30 biochemical assay)
Details: IC50 ranges; 0.4 nM enzyme, 25 nM Ub-Rh110, 30 min preincubation, test concentration 25 μM to 1.3 nM
Method: Assay Example A: Description of Biochemical Assay: Ubiquitin-Rhodamine 110 Assay for USP30 Activity
The assay was performed in a final volume of 6 μL in assay buffer containing 20 mM Tris-HCl (pH 8.0, (1M Tris-HCl, pH 8.0 solution; Corning 46-031-CM)), 1 mM GSH (L-glutathione reduced, Sigma-Aldrich, G4251-100G), 0.03% BGG ([…], Sigma, G7516-25G), and 0.01% Triton X-100 (Sigma, T9284-10L). Nanoliter quantities of 10-point, 3-fold serial dilution in DMSO were pre-dispensed into 1536 assay plates (Corning, #3724BC) for a final test concentration of 25 μM to 1.3 nM, top to lowest dose, respectively. Concentration and incubation times were optimized for the maximal signal-to-background while maintaining initial velocity conditions at a fixed substrate concentration (<<Km). The final concentration of enzyme (human recombinant USP30, Boston Biochem, cat. #E-582) in the assay was 0.4 nM. Final substrate (Ub-R^h110; Ubiquitin-Rhodamine 110, UbiQ-126) concentration was 25 nM. 3 μL of 2× enzyme was added to assay plates (pre-stamped with compound), preincubated for 30 minutes and then treated with 3 μL of 2× substrate. Plates were read for fluorescence on the Envision (Perkin Elmer) or PheraSTAR (BMG) (excitation at 485 nm and emission at 535 nm) 5 times over the course of 11 minutes and the slope of this kinetic read used to normalize the raw data.
For all assay formats, data were reported as percent inhibition compared with control wells based on the following equation: % inh=1−((FLU−AveLow)/(AveHigh−AveLow)) where FLU=measured Fluorescence, AveLow=average Fluorescence of no enzyme control (n=32), and AveHigh=average Fluorescence of DMSO control (n=32). IC50 values were determined by curve fitting of the standard 4 parameter logistic fitting algorithm included in the Activity Base software package: IDBS XE Designer Model205. Data are fitted using the Levenburg Marquardt algorithm.

Row | SMILES | pIC50
1 | N#CN1CC[C@@H]2CCN(c3ncc(C4CCCCC4)s3)C(=O)[C@H]2C1 (single isomer, unassigned) [1-12R,R] | 6.00 to 7.00
2 | N#CN1CC[C@H]2CCN(c3ncc(C4CCCCC4)s3)C(=O)[C@H]2C1 (single isomer, unassigned) [1-12S,R] | 5.00 to 6.00
3 | N#CN1CC[C@H]2CCN(c3ncc(C4CCCCC4)s3)C(=O)[C@@H]2C1 (single isomer, unassigned) [1-12S,S] | 5.00 to 6.00
4 | N#CN1CCN2CCN(c3ncc(N4CCCC[C@@H]4Cc4ccccc4)s3)C(=O)[C@H]2C1 (single isomer, unassigned) [1-118R,R] | 6.00 to 7.00
5 | N#CN1CCN2CCN(c3ncc(N4CCCC[C@H]4Cc4ccccc4)s3)C(=O)[C@H]2C1 (single isomer, unassigned) [1-118R,S] | > 7.00
6 | N#CN1CCN2CCN(c3ncc(N4CCCC[C@@H]4Cc4ccccc4)s3)C(=O)[C@@H]2C1 (single isomer, unassigned) [1-118S,R] | 6.00 to 7.00
7 | N#CN1CCN2CCN(c3ncc(N4CCCC[C@H]4Cc4ccccc4)s3)C(=O)[C@@H]2C1 (single isomer, unassigned) [1-118S,S] | 6.00 to 7.00
8 | N#CN1CC[C@@H]2CCN(c3ncc(C4CCCCC4)s3)C[C@@H]2C1 (single isomer, unassigned) [4-1R,S] | 5.00 to 6.00
9 | N#CN1CC[C@H]2CCN(c3ncc(C4CCCCC4)s3)C[C@H]2C1 (single isomer, unassigned) [4-1S,R] | 5.00 to 6.00
10 | N#CN1CC[C@H]2CN(c3ncc(C4CCCCC4)s3)C(=O)[C@H]2C1 (single isomer, unassigned) [5-1R,R] | 4.60 to 5.00
11 | N#CN1CC[C@@H]2CN(c3ncc(C4CCCCC4)s3)C(=O)[C@@H]2C1 (single isomer, unassigned) [5-1S,S] | 5.00 to 6.00
12 | N#Cc1cccc(-c2cnc(N3C[C@H]4CN(C#N)CC[C@H]4C3)nc2)c1 (single isomer, unassigned) [5-2R,R] | < 4.60
13 | N#Cc1cccc(-c2cnc(N3C[C@H]4CCN(C#N)C[C@H]4C3)nc2)c1 (single isomer, unassigned) [5-2S,S] | 4.60 to 5.00
14 | N#CN1CCN2CCN(c3ncc(C4CCCCC4)s3)C(=O)[C@H]2C1 (single isomer, unassigned) [Compound 1-1R] | > 7.00
15 | N#CN1CCN2CCN(c3ncc(C4CCCCC4)s3)C(=O)[C@@H]2C1 (single isomer, unassigned) [Compound 1-1S] | 6.00 to 7.00
16 | CC(C)(C)c1sc(N2CCN3CCN(C#N)C[C@@H]3C2=O)nc1Cl (single isomer, unassigned) [Compound 1-2R] | > 7.00
17 | CC(C)(C)c1sc(N2CCN3CCN(C#N)C[C@H]3C2=O)nc1Cl (single isomer, unassigned) [Compound 1-2S] | > 7.00
18 | N#CN1CCN2CCN(c3nc(Cl)c(C4CCCCC4)s3)C(=O)[C@H]2C1 (single isomer, unassigned) [Compound 1-3R] | > 7.00
19 | N#CN1CCN2CCN(c3nc(Cl)c(C4CCCCC4)s3)C(=O)[C@@H]2C1 (single isomer, unassigned) [Compound 1-3S] | > 7.00
20 | N#Cc1cccc(-c2cnc(N3CCN4CCN(C#N)C[C@@H]4C3=O)nc2)c1 (single isomer, unassigned) [Compound 1-4R] | 5.00 to 6.00
21 | N#Cc1cccc(-c2cnc(N3CCN4CCN(C#N)C[C@H]4C3=O)nc2)c1 (single isomer, unassigned) [Compound 1-4S] | 5.00 to 6.00
22 | N#CN1CCN2CCN(c3ncc(-c4cccc(Cl)c4)cn3)C(=O)[C@H]2C1 (single isomer, unassigned) [Compound 1-5R] | 5.00 to 6.00
23 | N#CN1CCN2CCN(c3ncc(-c4cccc(Cl)c4)cn3)C(=O)[C@@H]2C1 (single isomer, unassigned) [Compound 1-5S] | 5.00 to 6.00

Row | SMILES | pIC50
24 | N#Cc1cccc(-c2cnc(N3CCN4CCN(C#N)C[C@@H]4C3=O)s2)c1 (single isomer, unassigned) [Compound 1-6R] | > 7.00
25 | N#Cc1cccc(-c2cnc(N3CCN4CCN(C#N)C[C@H]4C3=O)s2)c1 (single isomer, unassigned) [Compound 1-6S] | > 7.00
26 | N#CN1CCN2CCN(c3ncc(-c4cccc(Cl)c4)s3)C(=O)[C@H]2C1 (single isomer, unassigned) [Compound 1-7R] | > 7.00
27 | N#CN1CCN2CCN(c3ncc(-c4cccc(Cl)c4)s3)C(=O)[C@@H]2C1 (single isomer, unassigned) [Compound 1-7S] | > 7.00
28 | N#CN1CCN2CCN(c3cc(-c4cccc(Cl)c4)on3)C(=O)[C@H]2C1 (single isomer, unassigned) [Compound 1-11R] | < 4.60
29 | N#CN1CCN2CCN(c3cc(-c4cccc(Cl)c4)on3)C(=O)[C@@H]2C1 (single isomer, unassigned) [Compound 1-11S] | < 4.60
30 | N#CN1CCN2CCN(c3ncc(-c4ccccc4)s3)C(=O)[C@H]2C1 (single isomer, unassigned) [Compound 1-14R] | > 7.00
31 | N#CN1CCN2CCN(c3ncc(-c4ccccc4)s3)C(=O)[C@@H]2C1 (single isomer, unassigned) [Compound 1-14S] | 6.00 to 7.00
32 | CC(C)(C)c1cnc(N2CCN3CCN(C#N)C[C@]3(C)C2=O)s1 (single isomer, unassigned) [Compound 1-15R] | 5.00 to 6.00
33 | N#CN1CCN2CCN(c3cc(-c4ccccc4Oc4ccccc4)[nH]n3)C(=O)[C@H]2C1 (single isomer, unassigned) [Compound 1-114R] | 6.00 to 7.00
34 | N#CN1CCN2CCN(c3cc(-c4ccccc4Oc4ccccc4)[nH]n3)C(=O)[C@@H]2C1 (single isomer, unassigned) [Compound 1-114S] | 6.00 to 7.00
35 | N#CN1CCN2CCN(c3ncc(-c4cccc(CN5CCC5)c4)s3)C(=O)[C@H]2C1 (single isomer, unassigned) [Compound 1-115R] | 5.00 to 6.00
36 | N#CN1CCN2CCN(c3ncc(-c4cccc(CN5CCC5)c4)s3)C(=O)[C@@H]2C1 (single isomer, unassigned) [Compound 1-115S] | 5.00 to 6.00
37 | CC(C)(C)c1sc(N2CCN3CCN(C#N)C[C@@]3(F)C2=O)nc1Cl (single isomer, unassigned) [Compound 1-116R] | 5.00 to 6.00
38 | CC(C)(C)c1sc(N2CCN3CCN(C#N)C[C@]3(F)C2=O)nc1Cl (single isomer, unassigned) [Compound 1-116S] | 5.00 to 6.00
39 | C[C@]12CN(C#N)CCN1CCN(c1ncc(C3CCCCC3)s1)C2=O (single isomer, unassigned) [Compound 1-117R] | > 7.00
40 | C[C@@]12CN(C#N)CCN1CCN(c1ncc(C3CCCCC3)s1)C2=O (single isomer, unassigned) [Compound 1-117S] | 5.00 to 6.00
41 | N#CN1CC(=O)N2CCN(c3ncc(C4CCCCC4)s3)C[C@H]2C1 (single isomer, unassigned) [Compound 3-1R] | > 7.00
42 | N#CN1CC(=O)N2CCN(c3ncc(C4CCCCC4)s3)C[C@@H]2C1 (single isomer, unassigned) [Compound 3-1S] | 6.00 to 7.00
43 | CC(C)(C)c1sc(N2CC(=O)N3CCN(C#N)C[C@@H]3C2=O)nc1Cl (single isomer, unassigned) [Compound 6-1R] | > 7.00
44 | CC(C)(C)c1sc(N2CC(=O)N3CCN(C#N)C[C@H]3C2=O)nc1Cl (single isomer, unassigned) [Compound 6-1S] | > 7.00
45 | N#CN1CCN2CCN(c3ncc(-c4ccccc4Oc4ccccc4)s3)C(=O)C2C1 (stereo in doubt) [Compound 1-113R, (R)-9-oxo-8-(5-(2-phenoxyphenyl)thiazol-2-yl)octahydro-2H-pyrazino[1,2-a]pyrazine-2-carbonitrile] | > 7.00
46 | N#CN1CCN2CCN(c3ncc(-c4ccccc4Oc4ccccc4)s3)C(=O)C2C1 (stereo in doubt) [Compound 1-113S, (S)-9-oxo-8-(5-(2-phenoxyphenyl)thiazol-2-yl)octahydro-2H-pyrazino[1,2-a]pyrazine-2-carbonitrile] | > 7.00

Reference: patent US12049466B2, “Fused bicyclic compounds useful as ubiquitin-specific peptidase 30 inhibitors” (FORMA Therapeutics, Inc., priority 2018, dated 2024)
